Experimental data: patent US8987268B2, “Pyrrolopyridazine JAK3 inhibitors and their use for the treatment of inflammatory and autoimmune diseases” (Bristol-Myers Squibb Company, priority 2011, dated 2015)
pIC50: −log10 of the molar value. Like-named read-outs stand apart in the source and are kept apart here.

Key:
GST-JAK3 enzyme = GST-JAK3 enzyme (Homo sapiens (Human), UniProt P52333); assay: JAK3 Kinase Assay Protocol (Caliper); type: biochemical; conditions: JAK3 kinase inhibition; read-out: LLE_JAK3_FB (IC50)
Procedure: JAK3 Kinase Assay Protocol (Caliper)
(§1) The assay reactions were performed in U-bottom 384-well plates. […] The reaction was initiated by the combination of GST-JAK3 enzyme with substrates and test compounds. The reactions were incubated at room temperature for 3 hours and terminated by adding 60 μl of 35 mM EDTA to each sample. Each reaction mixture was analyzed on the Caliper LabChip 3000 (Caliper, Hopkinton, Mass.) by electrophoretic separation of the fluorescent substrate and phosphorylated product. […] Compounds were dissolved at 10 mM in dimethylsulfoxide (DMSO) and evaluated at eleven concentrations. IC50 values were derived by non-linear regression analysis.

GST-JAK1 enzyme = GST-JAK1 enzyme (Homo sapiens (Human), UniProt P23458); assay: JAK1 Kinase Assay Protocol; type: biochemical; conditions: read-out: LLE_JAK1 (IC50)
Procedure: JAK1 Kinase Assay Protocol
as §1, with “GST-JAK1” for “GST-JAK3”

Chain of GST-JAK3 enzyme (P52333 whole entry): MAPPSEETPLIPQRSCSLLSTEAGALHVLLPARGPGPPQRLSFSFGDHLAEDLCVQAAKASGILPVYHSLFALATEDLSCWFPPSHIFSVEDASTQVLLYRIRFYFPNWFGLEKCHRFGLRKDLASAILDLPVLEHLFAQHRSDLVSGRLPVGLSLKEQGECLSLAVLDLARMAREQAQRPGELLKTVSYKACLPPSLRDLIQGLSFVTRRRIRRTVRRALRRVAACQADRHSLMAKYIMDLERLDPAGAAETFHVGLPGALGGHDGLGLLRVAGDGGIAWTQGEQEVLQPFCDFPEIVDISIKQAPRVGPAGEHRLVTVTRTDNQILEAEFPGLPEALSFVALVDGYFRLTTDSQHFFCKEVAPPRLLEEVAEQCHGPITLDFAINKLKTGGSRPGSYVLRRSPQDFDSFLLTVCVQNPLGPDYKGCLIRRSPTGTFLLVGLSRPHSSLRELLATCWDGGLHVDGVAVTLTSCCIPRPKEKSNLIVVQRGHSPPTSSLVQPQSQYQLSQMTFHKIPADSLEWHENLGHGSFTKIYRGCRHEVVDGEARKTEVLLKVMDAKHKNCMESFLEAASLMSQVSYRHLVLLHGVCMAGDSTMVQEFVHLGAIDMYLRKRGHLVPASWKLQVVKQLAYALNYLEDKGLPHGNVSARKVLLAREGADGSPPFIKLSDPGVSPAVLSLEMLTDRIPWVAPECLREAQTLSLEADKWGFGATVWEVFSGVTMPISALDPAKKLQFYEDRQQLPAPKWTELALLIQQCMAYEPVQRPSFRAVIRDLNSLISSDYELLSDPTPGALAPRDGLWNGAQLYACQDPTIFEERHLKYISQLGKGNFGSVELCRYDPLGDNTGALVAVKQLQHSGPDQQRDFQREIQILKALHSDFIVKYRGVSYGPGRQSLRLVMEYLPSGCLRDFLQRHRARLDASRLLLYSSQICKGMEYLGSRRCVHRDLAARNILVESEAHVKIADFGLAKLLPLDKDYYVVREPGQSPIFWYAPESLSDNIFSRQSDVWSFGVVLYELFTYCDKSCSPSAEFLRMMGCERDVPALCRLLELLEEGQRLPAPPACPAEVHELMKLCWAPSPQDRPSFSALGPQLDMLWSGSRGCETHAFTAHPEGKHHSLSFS
Chain of GST-JAK1 enzyme (P23458 whole entry): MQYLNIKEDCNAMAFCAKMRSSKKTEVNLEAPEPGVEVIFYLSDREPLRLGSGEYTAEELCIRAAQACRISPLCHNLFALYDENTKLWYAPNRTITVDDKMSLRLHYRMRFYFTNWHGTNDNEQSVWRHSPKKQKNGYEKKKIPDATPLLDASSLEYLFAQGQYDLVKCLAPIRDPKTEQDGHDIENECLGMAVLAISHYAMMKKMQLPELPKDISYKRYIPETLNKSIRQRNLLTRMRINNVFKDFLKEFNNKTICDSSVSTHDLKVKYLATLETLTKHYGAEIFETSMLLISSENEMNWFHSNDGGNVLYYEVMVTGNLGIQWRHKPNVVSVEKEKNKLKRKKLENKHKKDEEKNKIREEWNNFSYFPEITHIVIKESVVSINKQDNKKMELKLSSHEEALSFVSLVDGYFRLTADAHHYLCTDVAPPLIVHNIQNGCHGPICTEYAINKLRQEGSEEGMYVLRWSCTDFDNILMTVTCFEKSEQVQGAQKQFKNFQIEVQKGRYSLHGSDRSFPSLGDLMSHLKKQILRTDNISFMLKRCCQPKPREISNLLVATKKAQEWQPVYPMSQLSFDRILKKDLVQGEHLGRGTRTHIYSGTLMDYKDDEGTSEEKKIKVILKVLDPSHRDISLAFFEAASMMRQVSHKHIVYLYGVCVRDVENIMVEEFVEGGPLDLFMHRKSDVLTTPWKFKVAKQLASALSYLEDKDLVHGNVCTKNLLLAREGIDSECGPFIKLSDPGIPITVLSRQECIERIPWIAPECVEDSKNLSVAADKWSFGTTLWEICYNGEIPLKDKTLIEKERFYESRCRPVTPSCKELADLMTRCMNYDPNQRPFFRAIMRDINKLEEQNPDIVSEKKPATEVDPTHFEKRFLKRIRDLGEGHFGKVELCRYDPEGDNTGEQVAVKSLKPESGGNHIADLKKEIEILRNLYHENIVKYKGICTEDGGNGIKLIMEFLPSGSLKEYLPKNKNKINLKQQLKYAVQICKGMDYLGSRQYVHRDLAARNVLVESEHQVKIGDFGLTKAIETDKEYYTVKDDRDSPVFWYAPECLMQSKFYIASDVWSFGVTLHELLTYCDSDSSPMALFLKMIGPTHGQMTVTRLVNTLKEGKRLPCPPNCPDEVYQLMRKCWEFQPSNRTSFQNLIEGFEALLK

Compound	pIC50 (GST-JAK3 enzyme)	pIC50 (GST-JAK1 enzyme; JAK1 kinase inhibition)	pIC50 (GST-JAK1 enzyme)
CC[C@@H]1CN(C(=O)[C@@H](C)O)CC[C@H]1Nc1c(C(N)=O)cnn2cc(-c3cnn(C)c3)cc12 [Example 152, 4-((3R,4R)-3-ethyl-1-((R)-2-hydroxypropanoyl)piperidin-4-ylamino)-6-(1-methyl-1H-pyrazol-4-yl)pyrrolo[1,2-b]pyridazine-3-carboxamide]	8.11	8.05	
CS(=O)(=O)N1C[C@H](CF)[C@H](Nc2c(C(N)=O)cnn3cc(-c4ccc(C(F)(F)F)nc4)cc23)C1 (racemic) [Example 275, (+/−)-Cis-4-((-4-(fluoromethyl)-1-(methylsulfonyl)pyrrolidin-3-yl)amino)-6-(6-(trifluoromethyl)pyridin-3-yl)pyrrolo[1,2-b]pyridazine-3-carboxamide]		8.21	
C[C@H]1CN(c2ccc(C#N)cn2)C[C@H]1Nc1c(C(N)=O)cnn2cc(-c3cnn(CC(=O)N4CCC(F)(F)C4)c3)cc12 [Example 185, 4-(((3S,4S)-1-(5-cyanopyridin-2-yl)-4-methylpyrrolidin-3-yl)amino)-6-(1-(2-(3,3-difluoropyrrolidin-1-yl)-2-oxoethyl)-1H-pyrazol-4-yl)pyrrolo[1,2-b]pyridazine-3-carboxamide]	9.22	9.52	
CC[C@@H]1CN(C(=O)[C@H](C)O)CC[C@H]1Nc1c(C(N)=O)cnn2cc(-c3cnn(CC(C)C)c3)cc12 [Example 137, 4-((3R,4R)-3-ethyl-1-((S)-2-hydroxypropanoyl)piperidin-4-ylamino)-6-(1-isobutyl-1H-pyrazol-4-yl)pyrrolo[1,2-b]pyridazine-3-carboxamide]	8.85	8.70	
C[C@@H]1[C@H]2CN(C(=O)CF)C[C@H]2C[C@H]1Nc1c(C(N)=O)cnn2cc(-c3cnc(N)c(F)c3)cc12 [Example 69, 6-(6-amino-5-fluoropyridin-3-yl)-4-((3aS,4R,5R,6aS)-2-(2-fluoroacetyl)-4-methyloctahydrocyclopenta[c]pyrrol-5-ylamino)pyrrolo[1,2-b]pyridazine-3-carboxamide]	8.82		8.92
CNC(=O)Cn1cc(-c2cc3c(N[C@@H]4CN(c5ccc(Cl)cn5)C[C@@H]4C)c(C(N)=O)cnn3c2)cn1 [Example 188, 4-(((3S,4S)-1-(5-chloropyridin-2-yl)-4-methylpyrroldin-3-yl)amino)-6-(1-(2-(methylamino)-2-oxoethyl)-1H-pyrazol-4-yl)pyrrolo[1,2-b]pyridazine-3-carboxamide]	9.30	9.40	
CC[C@@H]1CN(C(=O)C(C)(C)O)CC[C@H]1Nc1c(C(N)=O)cnn2cc(-c3ccnc(C)c3)cc12 [Example 131, 4-((3R,4R)-3-ethyl-1-(2-hydroxy-2-methylpropanoyl)piperidin-4-ylamino)-6-(2-methylpyridin-4-yl)pyrrolo[1,2-b]pyridazine-3-carboxamide]	8.15	8.44	
C[C@H]1CN(C(=O)CC#N)C[C@H]1Nc1c(C(N)=O)cnn2cc(-c3ccnc(F)c3)cc12 [Example 201, 4-(((3S,4S)-1-(2-cyanoacetyl)-4-methylpyrrolidin-3-yl)amino)-6-(2-fluoropyridin-4-yl)pyrrolo[1,2-b]pyridazine-3-carboxamide]	8.85	9.30	
CCOC(=O)N1CCC[C@@H](Nc2c(C(N)=O)cnn3cc(-c4ccccc4)cc23)C1 [Example 51, ethyl (3R)-3-((3-carbamoyl-6-phenylpyrrolo[1,2-b]pyridazin-4-yl)amino)-1-piperidinecarboxylate]	6.55	6.04	
CCOc1ncc(-c2cc3c(N[C@@H]4CN(C(=O)C5(C#N)CC5)C[C@@H]4CF)c(C(N)=O)cnn3c2)cn1 [Example 281, 4-((3S,4S)-1-(1-cyanocyclopropanecarbonyl)-4-(fluoromethyl)pyrrolidin-3-ylamino)-6-(2-ethoxypyrimidin-5-yl)pyrrolo[1,2-b]pyridazine-3-carboxamide]	7.93	8.74	
CO[C@H]1CN(C(=O)C2(C#N)CC2)C[C@H]1Nc1c(C(N)=O)cnn2cc(-c3ccc(F)cc3)cc12 [Example 305, 4-(((3R,4S)-1-(1-cyanocyclopropanecarbonyl)-4-methoxypyrrolidin-3-yl)amino)-6-(4-fluorophenyl)pyrrolo[1,2-b]pyridazine-3-carboxamide]	8.82	8.96	

Continued, in another order:

pIC50 (GST-JAK3 enzyme)	pIC50 (GST-JAK1 enzyme; JAK1 kinase inhibition)	Compound	pIC50 (GST-JAK1 enzyme)
8.85	9.00	CC[C@H]1CN(C(=O)C2(C#N)CC2)C[C@H]1Nc1c(C(N)=O)cnn2cc(-c3ccc(C)nc3)cc12 [Example 221, 4-((3S,4S)-1-(1-cyanocyclopropanecarbonyl)-4-ethylpyrrolidin-3-ylamino)-6-(6-methylpyridin-3-yl)pyrrolo[1,2-b]pyridazine-3-carboxamide]	
8.82	9.00	CC[C@@H]1CN(S(C)(=O)=O)CC[C@H]1Nc1c(C(N)=O)cnn2cc(-c3cnn(CCC#N)c3)cc12 [Example 126, 6-(1-(2-cyanoethyl)-1H-pyrazol-4-yl)-4-((3R,4R)-3-ethyl-1-(methylsulfonyl)piperidin-4-ylamino)pyrrolo[1,2-b]pyridazine-3-carboxamide]	
9.40	9.52	C[C@@H]1[C@H]2CN(C(=O)CO)C[C@H]2C[C@H]1Nc1c(C(N)=O)cnn2cc(-c3ccc(C(N)=O)cc3)cc12 [Example 61, 6-(4-carbamoylphenyl)-4-(((3aS,4R,5R,6aS)-2-glycoloyl-4-methyloctahydrocyclopenta[c]pyrrol-5-yl)amino)pyrrolo[1,2-b]pyridazine-3-carboxamide]	
8.85	8.51	CCC(=O)N1C[C@H]2C[C@@H](Nc3c(C(N)=O)cnn4cc(-c5ccc(F)nc5)cc34)[C@H](C)[C@H]2C1 [Example 97, 6-(6-fluoropyridin-3-yl)-4-((3aS,4R,5R,6aS)-4-methyl-2-propionyloctahydrocyclopenta[c]pyrrol-5-ylamino)pyrrolo[1,2-b]pyridazine-3-carboxamide]	
7.68	7.24	CS(=O)(=O)N1CCC[C@H](Nc2c(C(N)=O)cnn3cc(-c4ccccc4)cc23)C1 [Example 46, 4-(((3S)-1-(methylsulfonyl)-3-piperidinyl)amino)-6-phenylpyrrolo[1,2-b]pyridazine-3-carboxamide]	
9.40	9.70	C[C@H]1CN(c2ccc(C#N)cn2)C[C@H]1Nc1c(C(N)=O)cnn2cc(-c3cnn(CC(=O)N4CC(F)(F)C4)c3)cc12 [Example 184, 4-(((3S,4S)-1-(5-cyanopyridin-2-yl)-4-methylpyrrolidin-3-yl)amino)-6-(1-(2-(3,3-difluoroazetidin-1-yl)-2-oxoethyl)-1H-pyrazol-4-yl)pyrrolo[1,2-b]pyridazine-3-carboxamide]	
8.82	8.85	C[C@@H]1[C@H]2CN(C(=O)C(C)(C)O)C[C@H]2C[C@H]1Nc1c(C(N)=O)cnn2cc(-c3cnn(C)c3)cc12 [Example 83, 4-((3aS,4R,5R,6aS)-2-(2-hydroxy-2-methylpropanoyl)-4-methyloctahydrocyclopenta[c]pyrrol-5-ylamino)-6-(1-methyl-1H-pyrazol-4-yl)pyrrolo[1,2-b]pyridazine-3-carboxamide]	
7.15	6.92	NC(=O)c1cnn2cc(-c3cccnc3)cc2c1NC1CCOCC1 [Example 31, 6-(3-pyridinyl)-4-(tetrahydro-2H-pyran-4-ylamino)pyrrolo[1,2-b]pyridazine-3-carboxamide]	
9.15	9.40	CNC(=O)c1ccc(-c2cc3c(N[C@@H]4C[C@@H]5CN(C(=O)C(C)(C)O)C[C@@H]5[C@H]4C)c(C(N)=O)cnn3c2)cn1 [Example 63, 4-(((3aS,4R,5R,6aS)-2-(2-hydroxy-2-methylpropanoyl)-4-methyloctahydrocyclopenta[c]pyrrol-5-yl)amino)-6-(6-(methylcarbamoyl)-3-pyridinyl)pyrrolo[1,2-b]pyridazine-3-carboxamide]	
8.05	9.05	COc1ncc(-c2cc3c(N[C@@H]4CN(C(=O)C5(C#N)CC5)C[C@@H]4CF)c(C(N)=O)cnn3c2)cn1 [Example 280, 4-((3S,4S)-1-(1-cyanocyclopropanecarbonyl)-4-(fluoromethyl)pyrrolidin-3-ylamino)-6-(2-methoxypyrimidin-5-yl)pyrrolo[1,2-b]pyridazine-3-carboxamide]	
9.30	9.15	CC[C@H]1CN(C(=O)C2(C#N)CC2)C[C@H]1Nc1c(C(N)=O)cnn2cc(-c3cc(C)no3)cc12 [Example 292, 4-(((3S,4S)-1-(1-cyanocyclopropanecarbonyl)-4-ethylpyrrolidin-3-yl)amino)-6-(3-methylisoxazol-5-yl)pyrrolo[1,2-b]pyridazine-3-carboxamide]	
9.40		CC(=O)N1C[C@H]2C[C@@H](Nc3c(C(N)=O)cnn4cc(-c5cnn(C)c5)cc34)[C@H](C)[C@H]2C1 [Example 93, 4-((3aS,4R,5R,6aS)-2-acetyl-4-methyloctahydrocyclopenta[c]pyrrol-5-ylamino)-6-(1-methyl-1H-pyrazol-4-yl)pyrrolo[1,2-b]pyridazine-3-carboxamide]	
8.48		COc1ccc(-c2cc3c(N[C@@H]4CCN(C(=O)[C@@H](C)O)CC4(C)C)c(C(N)=O)cnn3c2)cn1 [Example 56]	
